Measured values: patent US12661384B2, “Methods for inducing cell division of postmitotic cells” (priority 2015, dated 2026)

Test system: Human embryonic stem cell-derived cardiomyocytes
Assay: Screen of factor cocktails: PHH3 staining and total nuclei
Type: cell-based
Method: To determine an optimal cocktail of factors for inducing cell proliferation and/or cell cycle reentry of human postmitotic cardiomyocytes, combinations of factors were screened. […] Cells were treated with combinations of CDK1AF, CDK4, CCNB1, CCND1, AURKB or GFP control adenovirus, with or without combinations of TGF-βi (SB431542, “SB”), a […] (MK1775, “MK”), and IGF1. Analysis was performed to identify cocktails of factors that increased the number of cells undergoing mitosis as assessed by increased phospho-histone H3 staining at 4-, 8-, and 12-days after treatment with factor cocktails. FIG. 10, panel A. Analysis was also performed to identify which cocktails of factors had the highest cell survival as assessed by the increase in total number of nuclei. FIG. 10, panel B.

SMILES	replacement of factors in the cocktail (activation of CDK1 with small molecule)	cell survival (total number of nuclei) (4, 8 and 12 days after treatment)
C=CCn1c(=O)c2cnc(Nc3ccc(N4CCN(C)CC4)cc3)nc2n1-c1cccc(C(C)(C)O)n1 [MK1775]	could replace CDK1 and CCNB1 from the cocktail	
NC(=O)c1ccc(-c2nc(-c3ccc4c(c3)OCO4)c(-c3ccccn3)[nH]2)cc1 [SB431542]		enhanced survival
